What was measured:
Assay type in all cases: cell-based
mouse ES cells (AB2-2) [1] = test: Combinational effect with retinoic acid, cell count (Example 9); conditions: 4 days; for number of the nervous system cells: average of four experiments
Experimental: The culture medium was added to a petri dish having a diameter of 60 mm. Further, 1 10^6 mouse ES cells (AB2-2) which were obtained from Dr. Alan Bradley in The Wellcome Trust Sanger Institute were added thereto, and incubated under 5% CO2 atmosphere at 37° C. for 1 day. Then, the cells were separated using a glass pipet and added to the same petri dish again, and incubated under 5% CO2 atmosphere at 37° C. for 3 days to form embryoid bodies. […] Then, the above cultured cell dispersion ([…]) was added to 96 well plate which was coated with collagen type I, and was incubated under 5% CO2 atmosphere at 37° C. overnight. On the next day, the examined compound 5 only or with retinoic acid in combination in each final concentration of 10 nM was added thereto, and the cells were incubated in adhesive state under 5% CO2 atmosphere at 37° C. for 4 days. After the incubation, the cells were washed with PBS, and separated using 0.25% Trypsin. The number of the cells was counted. This experiment was carried out four times, and the average of the counted numbers was obtained. […] In the FIG. 7, “RA” represents retinoic acid.

mouse ES cells (AB2-2) [2] = test: Induction of differentiation of mouse ES cell, change of morphology (Example 7(1)); conditions: minimum concentration at which the change of the morphology was observed; embryoid bodies from mouse ES cells, 25 to 100 μM, cultured 4 days, hematoxylin staining
Experimental: The culture medium was added to a petri dish having a diameter of 60 mm. Further, 1 10^6 mouse ES cells (AB2-2) which were obtained from Dr. Alan Bradley in The Wellcome Trust Sanger Institute were added thereto, and incubated under 5% CO2 atmosphere at 37° C. for 1 day. Then, the cells were separated using a glass pipet and added to the same petri dish again, and incubated under 5% CO2 atmosphere at 37° C. for 3 days to form embryoid bodies.
Then, the above cultured cell dispersion (100 μL) was added to 96 well plate which was coated with collagen type 1, and was incubated under 5% CO2 atmosphere at 37° C. overnight. Separately, each examined compound was dissolved in a culture medium which was obtained by removing […] and a leukemia inhibitory factor from an ES culture medium and which was used for inducing a differentiation, and the solutions were added each well so that the final concentrations were 25 to 100 μM. As examined compounds, compounds which were synthesized by similar methods to Examples 1 to 6 in addition to the compounds synthesized in Examples 1 to 6 were used. […] In addition, fetal bovine serum was added at a final concentration of 5% and bFGF: basic fibroblast growth factor was added at a final concentration of 2 ng/mL to each well, and the cells were cultured in an adhesive state under 5% CO2 atmosphere at 37° C. for 4 days.
After the above culture, paraformaldehyde was added to each well at a final concentration of 2% to fix the cells. The cells were stained with hematoxylin, and the change of the morphology thereof was observed using an optical microscope. As control, only dimethylsulfoxide was added at a final concentration of 0.5% without adding the examined compound. […] In addition, the minimum concentrations of each examined compound at which the change of the morphology was observed are summarized in Table 2.

mouse ES cell = test: Gene expression analysis by RT-PCR (Example 7(3)); conditions: mouse ES cell treated with 80 μM for 5 days
Experimental: Differentiation of a mouse ES cell was induced similarly to the above (1) except that the cell was treated with 80 μM of the examined compound 4 for 5 days. From the obtained cell, total RNA was extracted using TRIzol reagent. Using the total RNA, cDNA was synthesized by an ordinary method. A polymerase chain reaction was carried out using the synthesized cDNA as a template and each primer of Oct3/4▪Nanog—a marker of an undifferentiated cell, Nestin—a marker of a neural stem cell, Sox9▪Sox10▪Slug—a marker of a neural crest cell, GATA2—a marker of a mesoderm, Sca-1—a marker of a stem cell, and c-kit—a marker of a hematopoietic stem cell for analyzing the expression of each marker. In addition, for comparison, the expression was similarly analyzed with respect to an undifferentiated mouse ES cell and an embryoid body obtained by culturing a mouse ES cell for 3 days.

mouse ES cells (AB2-2) [3] = test: Induction of differentiation of mouse ES cell, morphology (Example 10); conditions: 50 μM, 4 days, hematoxylin staining, optical microscope
Experimental: A culture medium to induce an embryoid bodies used in Example 7 (4 mL) was added to a petri dish having a diameter of 60 mm. Further, 10^6 mouse ES cells (AB2-2) were added thereto, and incubated under 5% CO2 atmosphere at 37° C. for 3 days. The obtained embryoid was added into a […] volume tube. The above petri dish was washed by adding 1 PBS (5 mL), and the PBS was added into the above tube. The half quantity of the obtained cells was transferred to a separate tube, and the tube was stood still at room temperature for 5 minutes. After the supernatant was removed, an NP medium (10.5 mL) used in Example 7 was added. The cells were dispersed well, and the mixture was added to each well of a 96 well plate which was coated with collagen in an amount of 100 μL. The cells were incubated under 5% CO2 atmosphere at 37° C. overnight.
In DMSO, 3,4-dihydroxybenzonitrile (manufactured by Tokyo Chemical Industry Co., Ltd.) was dissolved. The solution was added to each well so that the total amount became 200 μL in a final concentration of 12.5 μM, 25 μM or […]. Further, blood serum and bFGF: basic fibroblast growth factor were added to each well respectively in final concentrations of 5% and 10 ng/mL, and the cells were cultured under 5% CO2 atmosphere at 37° C. for 4 days.
After the cultivation, 100 μL of the culture medium was removed from each well. […]

Question: How did the “number of the nervous system cells” value (mouse ES cells (AB2-2) [1]; compound only, final concentration 10 nM) turn out when `COC(=O)c1cc(O)c(O)c(O)c1` [Example 5, Methyl 3,4,5-trihydroxybenzoate] was run?
Answer: 1.71±0.51 10^6

Question: What about the “increase of the number of nervous system cells with retinoic acid in combination versus compound only” value (mouse ES cells (AB2-2) [1]; each final concentration 10 nM) of the same molecule?
Answer: about 1.89 times

Question: And the “number of the nervous system cells” value (mouse ES cells (AB2-2) [1]; in combination with retinoic acid, each final concentration 10 nM)?
Answer: 3.23±0.42 10^6

Question: With `O=C(O)[C@@H]1CSC(c2cccc(OCc3ccccc3)c2OCc2ccccc2)=N1` [examined compound 2, (R)-2-{2,3-Bis(benzyloxy)phenyl}-4,5-dihydrothiazole-4-carboxylic acid] as the molecule, how does the “Minimum effective concentration for morphology change” value (mouse ES cells (AB2-2) [2]) read?
Answer: 100 μ M

Question: `O=C(O)c1csc(-c2cccc(OCc3ccccc3)c2OCc2ccccc2)n1` [examined compound 1, 2-{2,3-Bis(benzyloxy)phenyl}thiazole-4-carboxylic acid] was tested. Which “Minimum effective concentration for morphology change” value (mouse ES cells (AB2-2) [2]) did it give?
Answer: 50 μ M

Question: Which Minimum inhibitory concentration (mouse ES cells (AB2-2) [2]) does the source give for “2-(2,3-Dihydroxyphenyl)thiazole-4-carboxylic acid [examined compound 3]” here?
Answer: 70 μ M 70 μ M

Question: And the “Slug expression (marker of a neural crest cell)” value (mouse ES cell)?
Answer: remarkably expressed

Question: What about the “Sox9 expression (marker of a neural crest cell)” value (mouse ES cell) of the same molecule?
Answer: expressed

Question: And the “Sox10 expression (marker of a neural crest cell)” value (mouse ES cell)?
Answer: expressed

Question: How did the “change of the cells' morphology” value (mouse ES cells (AB2-2) [3]) turn out when `N#Cc1ccc(O)c(O)c1` [3,4-dihydroxybenzonitrile] was run?
Answer: nervous system cells which had cell processes all around were observed

Source: patent US20140093960A1, “CELL DIFFERENTIATION INDUCER AND DIFFERENTIATION INDUCING METHOD” (The University of Tokushima, priority 2011, published 2014)
